Test results from ChEMBL document CHEMBL3132836, “Structure-based drug design of chromone antagonists of the adenosine A2A receptor” (Medchemcomm, 2014).

Experiments:
Adenosine receptor A2a = Adenosine receptor A2a (Homo sapiens, UniProt P29274); test: Displacement of [3H]ZM241385 from human adenosine A2A receptor expressed in HEK293 cells after 1 hr by liquid scintillation counting; type: cell-based
CHO = test: Selectivity ratio of Ki for human adenosine A1 receptor expressed in CHO cells to Ki for human adenosine A2A receptor expressed in HEK293 cells; type: cell-based
[1] = Half life in Sprague-Dawley rat liver microsomes at 3 uM by LC-MS analysis; type: ADME
Adenosine receptor A1 = target: T1, Adenosine receptor A1 (Homo sapiens, UniProt P30542); test: Displacement of [3H]DPCPX from human adenosine A1 receptor expressed in CHO cells after 1 hr by liquid scintillation counting; type: cell-based
T1 sequence (P30542 whole entry): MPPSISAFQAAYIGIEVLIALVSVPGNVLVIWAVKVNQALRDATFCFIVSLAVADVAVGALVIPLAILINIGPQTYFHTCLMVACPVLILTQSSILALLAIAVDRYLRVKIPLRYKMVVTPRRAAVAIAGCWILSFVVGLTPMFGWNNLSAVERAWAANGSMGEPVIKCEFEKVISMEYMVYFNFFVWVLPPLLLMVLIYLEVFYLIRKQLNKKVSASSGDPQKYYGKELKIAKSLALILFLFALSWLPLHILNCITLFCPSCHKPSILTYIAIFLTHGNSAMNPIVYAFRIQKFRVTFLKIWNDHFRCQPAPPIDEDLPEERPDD

Adenosine receptor A2b = target: T2, Adenosine receptor A2b (Homo sapiens, UniProt P29275); test: Displacement of [3H]MRS1754 from adenosine A2B receptor (unknown origin) expressed in HEK293 cells after 90 mins; type: cell-based
T2 sequence (P29275 whole entry): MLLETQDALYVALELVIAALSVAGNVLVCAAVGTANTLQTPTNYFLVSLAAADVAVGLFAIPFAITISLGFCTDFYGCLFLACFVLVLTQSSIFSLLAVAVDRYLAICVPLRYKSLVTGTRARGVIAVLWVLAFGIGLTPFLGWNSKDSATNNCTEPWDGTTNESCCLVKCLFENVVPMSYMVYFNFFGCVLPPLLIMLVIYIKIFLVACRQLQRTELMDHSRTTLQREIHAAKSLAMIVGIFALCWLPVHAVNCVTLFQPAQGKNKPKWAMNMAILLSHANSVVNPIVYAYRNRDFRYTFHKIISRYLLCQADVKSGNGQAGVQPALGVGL

Adenosine receptor A3 = target: T3, Adenosine receptor A3 (Homo sapiens, UniProt P0DMS8); test: Displacement of [125I]AB-MECA from adenosine A3 receptor (unknown origin) expressed in CHO-K1 cells after 60 mins; type: cell-based
T3 sequence (P0DMS8 whole entry): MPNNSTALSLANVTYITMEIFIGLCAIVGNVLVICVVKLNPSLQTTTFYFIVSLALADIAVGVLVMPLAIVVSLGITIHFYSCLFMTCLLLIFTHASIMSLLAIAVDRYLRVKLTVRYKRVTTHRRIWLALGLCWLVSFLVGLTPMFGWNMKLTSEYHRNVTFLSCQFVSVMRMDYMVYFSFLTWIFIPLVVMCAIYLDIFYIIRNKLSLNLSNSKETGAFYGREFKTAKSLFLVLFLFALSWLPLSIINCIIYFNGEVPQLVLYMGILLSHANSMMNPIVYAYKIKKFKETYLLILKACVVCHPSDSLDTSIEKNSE

Adenosine receptor A2a, sequence (P29274 whole entry): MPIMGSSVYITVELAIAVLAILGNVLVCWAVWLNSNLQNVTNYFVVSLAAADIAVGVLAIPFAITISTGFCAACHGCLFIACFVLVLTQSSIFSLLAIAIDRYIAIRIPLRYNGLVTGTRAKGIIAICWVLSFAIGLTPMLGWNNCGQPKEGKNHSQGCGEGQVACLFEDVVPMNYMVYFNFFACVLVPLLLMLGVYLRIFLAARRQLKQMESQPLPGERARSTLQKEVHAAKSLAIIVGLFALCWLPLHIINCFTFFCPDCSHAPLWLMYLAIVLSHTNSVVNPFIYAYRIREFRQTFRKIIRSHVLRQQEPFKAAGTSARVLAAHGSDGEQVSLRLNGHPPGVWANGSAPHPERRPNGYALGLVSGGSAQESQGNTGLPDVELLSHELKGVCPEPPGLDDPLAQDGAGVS

Row | Structure (SMILES) | Ki (Adenosine receptor A2a; read-out: pKi (converted)) [nM] | other results
1 | CCOC(=O)COc1cc(C)c2c(=O)c(-c3nc(C)cs3)coc2c1 | 100 | –
2 | Cc1csc(-c2coc3cc(OCC4CC4)cc(C)c3c2=O)n1 | 79.4 | Ratio Ki (CHO): > 100; half-life at 3 µM [1]: 18 min
3 | Cc1csc(-c2coc3cc(OCC(=O)O)cc(C)c3c2=O)n1 | 2000 | –
4 | Cc1csc(-c2coc3cccc(C)c3c2=O)n1 | 316 | half-life at 3 µM [1]: 14 min
5 | Cc1csc(-c2c(C)oc3cc(O)ccc3c2=O)n1 | 7940 | –
6 | C#CCCCOc1cc(C)c2c(=O)c(-c3nc(C)cs3)coc2c1 | 25.1 | –
7 | Cc1csc(-c2coc3cc(OCCN(C)C)cc(C)c3c2=O)n1 | 1580 | –

More lines, main results first:

Row | Ki (Adenosine receptor A2a; read-out: pKi (converted)) [nM] | Structure (SMILES) | other results
8 | 31.6 | CCCc1cc2c(=O)c(-c3csc(C)n3)coc2cc1O | –
9 | 20 | CCCCCc1cc2c(=O)c(-c3nc(C)cs3)coc2cc1O | Ratio Ki (CHO): > 100
10 | 79.4 | CCc1cc2c(=O)c(-c3nc(C)cs3)coc2cc1O | Ratio Ki (CHO): > 100
11 | 1580 | CCc1cc2c(=O)c(-c3cscn3)coc2cc1O | –
12 | 50.1 | CCc1cc2c(=O)c(-c3csc(C)n3)coc2cc1O | –
13 | 2000 | Cc1csc(-c2coc3cc(O)ccc3c2=O)n1 | –
14 | 39.8 | CCOc1cc2occ(-c3nc(C)cs3)c(=O)c2cc1CC | Ki (Adenosine receptor A1): 5000 nM; IC50 (Adenosine receptor A2b): > 10000 nM; Ki (Adenosine receptor A2b): > 10000 nM; Ki (Adenosine receptor A2a; read-out: Ki): 40 nM; IC50 (Adenosine receptor A3): > 10000 nM; Ki (Adenosine receptor A3): > 10000 nM; half-life at 3 µM [1]: 16 min
15 | 31.6 | CC(=O)Oc1cc(C)c2c(=O)c(-c3nc(C)cs3)coc2c1 | Ratio Ki (CHO): 13
16 | 25.1 | CCCc1cc2c(=O)c(-c3nc(C)cs3)coc2cc1O | –
